Test results taken from US20080076772A1, “Anti-Inflammatory Agents” (Pharma Mar S.A. Sociedad Unipersonal, priority 2004, published 2008).

Key:
[1] = in vitro; settings: human
Method: (§1) Purified populations of human blood monocytes were prepared as previously described by differential density centrifugation on Ficoll and Percoll gradients (see Allavena, P., Piemonti, L., Longoni, D., Bernasconi, S., Stoppacciaro, A., Ruco, L., and Mantovani, A. IL-10 prevents the differentiation of monocytes to dendritic cells but promotes their maturation to macrophages. Eur J Immunol, 28: 359-369, 1998). […] Human thymocytes were isolated from resected thymus from pediatric patients undergoing surgery. Thymocytes were obtained by teasing and isolated on Percoll gradient.
(§2) Cells were cultured at 10^6 cells/ml in complete medium RPMI (Biochrom, Berlin, FRG)+10% FCS (Hyclone, Logan, Utah). In vitro differentiated macrophages were obtained by culture of monocytes Monocyte-Colony Stimulating Factor (M-CSF) Peprotech (20 ng/ml), for 5 days. In some experiments, macrophages were treated with LPS (100 ng/ml) Sigma Aldrich, IFN gamma (500 IU/ml) or IL-4 (20 ng/ml) (Schering Plough) for 24 h.
(§3) Cell viability was analyzed by DNA content in Flow Cytometry
(§4) Cells exposed to treatments were fixed with ethanol 70%, washed in PBS and stained with propidium iodide (PI) solution containing 10 ug/ml PI in PBS and 25 μl RNAse 10,000 units, overnight in the dark. PI incorporation was evaluated on at least 20,000 cells/sample using a FACS Calibur instrument (Becton Dickinson, Sunnyvale, Calif., USA), with a bandpass filter at 620 nm. Apoptosis was detected by staining with AnnexinV and PI. FACS analysis was performed using a bandpass filter 530 and 620 nm for green (AnnexinV) and red (PI) fluorescence respectively, in combination with a […] dichroic mirror.
(§5) Purified preparations of blood monocytes, lymphocytes and thymocytes were cultured with different concentrations of ecteinascidin 743 for 48 h. Cell viability was assessed by DNA analysis and propidium iodide (PI) staining in Flow cytometry.
(§6) A kinetics analysis of the cytotoxic effect of ecteinascidin 743 was performed in the presence of M-CSF. Cells were treated with M-CSF (20 ng/ml) and different concentrations of ecteinascidin 743. Samples were collected at the indicated times and tested for DNA analysis.
(§7) Viability was assessed by PI staining and analyzed by Flow Cytometry.

[2] = tested on: blood monocytes; assay: in vitro
Method: as §1, §2, §3, §4, §5, §6, §7

[3] = tested on: macrophage differentiation; assay: In vitro macrophage differentiation of monocytes with M-CSF (phenotype analysis); format: cell-based, human; settings: 1 nM, 5 days with M-CSF 20 ng/ml
Method: Expression of cell membrane markers was performed by immunofluoresce and analyzed by Flow Cytometry. Cells were incubated with anti-CD14, anti-CD16, anti-CD68, anti-CD206 (mannose receptor) and then with FITC-goat anti-mouse Ig as described. At least 10,000 cells were analyzed.
In order to study the effect of ecteinascidin 743 on macrophage differentiation, non cytotoxic doses of the drug were used. Monocytes were cultured with M-CSF (20 ng/ml) and with sub-cytotoxic concentrations of ecteinascidin 743 for 5 days. Phenotype analysis was performed by indirect immunofluorescence and analyzed in Flow Cytometry by gating on large cells. Usually, an average of 65±15% (mean±SD of>10 experiments) of input monocytes differentiate into large cells expressing typical macrophage markers, including CD16, CD68 and CD206 (mannose receptor). After 5 days of culture monocyte viability, evaluated by propidium iodide staining in flow cytometry, was 92% and 70% of untreated cells at 0.5 and 1 nM ecteinascidin 743, respectively.

[4] = tested on: IL-6; assay: IL-6 release in TAM (ELISA); format: cell-based; settings: Homo sapiens, n=4
Text: Tumour-associated macrophages (TAM) and tumour cells were isolated from the ascitic fluid of patients with diagnosed ovarian adenocarcinoma, admitted to the Clinic of Obstetrics and Gynecology of the University of Milan-Bicocca, S Gerardo Hospital. Cells contained in the ascitic fluid were centrifuged and isolated by differential density gradients of Ficoll and Percoll, and plastic adherence as previously described (see Allavena, P., Peccatori, F., Maggioni, D., Erroi, A., Sironi, M., Colombo, N., Lissoni, A., Galazka, A., Meiers, W., Mangioni, C., et al. Intraperitoneal recombinant gamma-interferon in patients with recurrent ascitic ovarian carcinoma: modulation of cytotoxicity and cytokine production in tumour-associated effectors and of major histocompatibility antigen expression on tumour cells. Cancer Res, 50: 7318-7323, 1990). Purity of TAM and tumour cell preparations was usually>65±10% as defined by morphology and phenotype analysis. Cells were treated with ecteinascidin 743 at the indicated concentrations and cultured for 1-5 days, as specified in figure legends. […]
Supernatants of untreated cells or cells treated with ecteinascidin 743 or other anti-neoplastic agents were collected after 24 h culture and frozen. […] Determination of cytokines CCL2, TNF and IL-6 was measured by specific ELISA following the manufacturer's instructions. […]

[5] = tested on: CCL2 transcripts; assay: Real time-PCR of CCL2 transcripts in LPS-stimulated monocytes; format: cell-based, human
Text: (§8) To verify whether the inhibitory effect of ecteinascidin 743 on cytokine production was at the transcriptional level, we analyzed mRNA of CCL2 and TNF from LPS-stimulated macrophages by real time-PCR of CCL2 and TNF transcripts in LPS-stimulated monocytes exposed to ecteinascidin 743.

[6] = tested on: TNF mRNA; assay: Real time-PCR of TNF transcripts in LPS-stimulated monocytes; format: cell-based, human
Text: as §8

COc1cc2c(cc1O)CCN[C@]21CS[C@@H]2c3c(OC(C)=O)c(C)c4c(c3[C@H](COC1=O)N1[C@@H]2[C@H]2c3c(cc(C)c(OC)c3O)C[C@@H]([C@@H]1O)N2C)OCO4 [ecteinascidin 743]
viability at 5 days, 0.0005 µM [1]: 92% | viability at 5 days, 0.001 µM [1]: 70% | monocyte death ([2]; 5 nM, 48 h incubation, with M-CSF): 30% | monocyte death ([2]; 5 nM, 48 h incubation, without M-CSF): 55% | monocyte death ([2]; 10 nM, 24 h treatment, with M-CSF): 35% | monocyte death ([2]; 10 nM, 24 h treatment, without M-CSF): 65% | IC50 ([2]; Homo sapiens, Monocyte, 48 h, read-out: lethal dose 50% (IC50), monocyte mortality): 2.5 to 5 nM | mortality at 0.0025 µM ([2]; Homo sapiens, Monocyte, 120 h, read-out: mortality of monocytes): 40 to 50% | toxicity on monocytes (kinetics) ([2]; higher concentrations, after 24 h incubation, M-CSF 20 ng/ml): significant toxicity | de novo expression of CD68, CD16 and CD206 [3]: reduced | inhibition at 0.005 µM ([4]; 5 nM): 35% | inhibition at 0.01 µM ([4]; 10 nM): 47% | CCL2 transcripts [5]: consistent reduction | TNF mRNA [6]: unaffected
